According to EP1082099B1, “SURFACTANT FOR USE IN EXTERNAL PREPARATIONS FOR SKIN AND EXTERNAL PREPARATION FOR SKIN CONTAINING THE SAME” (Showa Denko K K, priority 1998, dated 1999):

Key:
[1] = Surface tension test (plate method); type: physicochemical; conditions: 0.1 wt% in water, 25°C
Method: The dried medium preparation and purified surfactin sodium salt were each dissolved in water in an amount of 0.1 wt% and their ability of decreasing surface tension was tested. […]

[2] = tested on: three-dimensional skin model; assay: Skin irritation test: MTT cytotoxicity on three-dimensional cultured skin model; type: cell-based; conditions: test substance in PBS pH 7, 1 hour exposure, 16 hours incubation, read from graph
Method: Using a three-dimensional skin model (trade name: Three-dimensional cultured skin model, manufactured by Gunze), skin irritation tests were performed. […] The test substances were adjusted with PBS (Phosphate Buffer Saline, pH 7) so that they were in various concentrations. To the thus-adjusted test substances was exposed the skin model for 1 hour. Thereafter, the test substances were washed and incubated for 16 hours in a medium attached to the above-described three-dimensional skin model. After the incubation, a solution of MTT (3-(4,5-dimethylthiazol-2-yl)-2,5-diphenyltetrazolium bromide) was added and pigments were extracted with isopropanol rendered acidic with hydrochloric acid, followed by measurement of absorbance at a wavelength of 570 nm. […] This value was called B. The MTT solution was added to PBS and extraction was performed similarly. Absorbance of the extract measured at a wavelength of 570 nm was named C. From these values was calculated cytotoxicity. Calculation was made according to the following equation. Cytotoxicity (%) = (1-(A-c)/(B-C)) x 100 [formula]
Plotting the concentration of a test substance on the axis of abscissa and cytotoxicity on the axis of ordinate, a graph was obtained, from which the concentration of a test compound at 50% cytotoxicity was read.

[3] = Turbidity test of surfactin solutions with alkaline earth metal, judged visually after storage; type: physicochemical; design: key: -: Not turbid; +: Turbid; conditions: 40°C for 7 days
Method: (§1) Samples were prepared by dissolving surfactin sodium salt in a concentration of 0 or 0.2% and calcium chloride dihydrate in a calcium concentration of 0, 10, or 20 ppm in each of solvents described below, and each solution was charged in a screw vial and sealed, which was then left to stand at 40°C for 7 days. After 7 days, the turbidity of each sample was judged visually.
as §1, with “dissolving 0.2%” for “dissolving”, “salt” for “salt in a concentration of 0 or 0.2%”, “magnesium” for “calcium”
(§2) Samples were prepared by dissolving 0.2% surfactin sodium salt and calcium chloride dihydrate in a calcium concentration of 0.1, 1, or 10 ppm in the solvent described below and further disodium edetate was added in an amount of 0, 0.0001, 0.001, 0.01, 0.1, 0.2, 1, or 3%, respectively. Then, each solution was charged in a screw vial and sealed, which was then left to stand at 40°C for 7 days. After 7 days, the turbidity of each sample was judged visually. […]
as §2, with “sodium citrate” for “disodium edetate”

[4] = as above; type: physicochemical; design: key: -: Not turbid; ±: Slightly turbid; +: Turbid; conditions: 40°C for 7 days
Method: as §1
as §1, with “dissolving 0.2%” for “dissolving”, “salt” for “salt in a concentration of 0 or 0.2%”, “magnesium” for “calcium”
as §2
as §2, with “sodium citrate” for “disodium edetate”

surfactin sodium salt
27.6 mN/m: Surface Tension [1]
±: turbidity ([4]; 0.2% surfactin sodium salt in Solvent 2 (7% Ethanol, 93% deionized water), magnesium 10 ppm) | turbidity ([4]; 0.2% surfactin sodium salt in Solvent 2 (7% Ethanol, 93% deionized water), magnesium 20 ppm) | turbidity ([4]; 0.2% surfactin sodium salt in Solvent 3 (7% Ethanol, 5% glycerin, 5% 1,3-butylene glycol, 83% deionized water), magnesium 10 ppm) | turbidity ([4]; 0.2% surfactin sodium salt in Solvent 3 (7% Ethanol, 5% glycerin, 5% 1,3-butylene glycol, 83% deionized water), magnesium 20 ppm) | turbidity ([4]; 0.2% surfactin sodium salt, sodium citrate 0.0001%, calcium 1 ppm, solvent 7% Ethanol, 5% glycerin, 5% 1,3-butylene glycol, 83% deionized water) | turbidity ([4]; 0.2% surfactin sodium salt, sodium edetate 0.0001%, calcium 1 ppm, solvent 7% Ethanol, 5% glycerin, 5% 1,3-butylene glycol, 83% deionized water)
-: turbidity ([3]; 0.2% surfactin sodium salt in Solvent 1 (deionized water), magnesium 0 ppm) | turbidity ([3]; 0.2% surfactin sodium salt in Solvent 2 (7% Ethanol, 93% deionized water), magnesium 0 ppm) | turbidity ([3]; 0.2% surfactin sodium salt in Solvent 3 (7% Ethanol, 5% glycerin, 5% 1,3-butylene glycol, 83% deionized water), magnesium 0 ppm) | turbidity ([3]; 0.2% surfactin sodium salt, sodium citrate 0%, calcium 0.1 ppm, solvent 7% Ethanol, 5% glycerin, 5% 1,3-butylene glycol, 83% deionized water) | turbidity ([3]; 0.2% surfactin sodium salt, sodium citrate 0.0001%, calcium 0.1 ppm, solvent 7% Ethanol, 5% glycerin, 5% 1,3-butylene glycol, 83% deionized water) | turbidity ([3]; 0.2% surfactin sodium salt, sodium citrate 0.001%, calcium 0.1 ppm, solvent 7% Ethanol, 5% glycerin, 5% 1,3-butylene glycol, 83% deionized water) | turbidity ([3]; 0.2% surfactin sodium salt, sodium citrate 0.001%, calcium 1 ppm, solvent 7% Ethanol, 5% glycerin, 5% 1,3-butylene glycol, 83% deionized water) | turbidity ([3]; 0.2% surfactin sodium salt, sodium citrate 0.01%, calcium 0.1 ppm, solvent 7% Ethanol, 5% glycerin, 5% 1,3-butylene glycol, 83% deionized water) | turbidity ([3]; 0.2% surfactin sodium salt, sodium citrate 0.01%, calcium 1 ppm, solvent 7% Ethanol, 5% glycerin, 5% 1,3-butylene glycol, 83% deionized water) | turbidity ([3]; 0.2% surfactin sodium salt, sodium citrate 0.01%, calcium 10 ppm, solvent 7% Ethanol, 5% glycerin, 5% 1,3-butylene glycol, 83% deionized water) | turbidity ([3]; 0.2% surfactin sodium salt, sodium citrate 0.1%, calcium 0.1 ppm, solvent 7% Ethanol, 5% glycerin, 5% 1,3-butylene glycol, 83% deionized water) | turbidity ([3]; 0.2% surfactin sodium salt, sodium citrate 0.1%, calcium 1 ppm, solvent 7% Ethanol, 5% glycerin, 5% 1,3-butylene glycol, 83% deionized water) | turbidity ([3]; 0.2% surfactin sodium salt, sodium citrate 0.1%, calcium 10 ppm, solvent 7% Ethanol, 5% glycerin, 5% 1,3-butylene glycol, 83% deionized water) | turbidity ([3]; 0.2% surfactin sodium salt, sodium citrate 0.2%, calcium 0.1 ppm, solvent 7% Ethanol, 5% glycerin, 5% 1,3-butylene glycol, 83% deionized water) | turbidity ([3]; 0.2% surfactin sodium salt, sodium citrate 0.2%, calcium 1 ppm, solvent 7% Ethanol, 5% glycerin, 5% 1,3-butylene glycol, 83% deionized water) | turbidity ([3]; 0.2% surfactin sodium salt, sodium citrate 0.2%, calcium 10 ppm, solvent 7% Ethanol, 5% glycerin, 5% 1,3-butylene glycol, 83% deionized water) | turbidity ([3]; 0.2% surfactin sodium salt, sodium citrate 1%, calcium 0.1 ppm, solvent 7% Ethanol, 5% glycerin, 5% 1,3-butylene glycol, 83% deionized water) | turbidity ([3]; 0.2% surfactin sodium salt, sodium citrate 1%, calcium 1 ppm, solvent 7% Ethanol, 5% glycerin, 5% 1,3-butylene glycol, 83% deionized water) | turbidity ([3]; 0.2% surfactin sodium salt, sodium citrate 1%, calcium 10 ppm, solvent 7% Ethanol, 5% glycerin, 5% 1,3-butylene glycol, 83% deionized water) | turbidity ([3]; 0.2% surfactin sodium salt, sodium citrate 3%, calcium 0.1 ppm, solvent 7% Ethanol, 5% glycerin, 5% 1,3-butylene glycol, 83% deionized water) | turbidity ([3]; 0.2% surfactin sodium salt, sodium citrate 3%, calcium 1 ppm, solvent 7% Ethanol, 5% glycerin, 5% 1,3-butylene glycol, 83% deionized water) | turbidity ([3]; 0.2% surfactin sodium salt, sodium citrate 3%, calcium 10 ppm, solvent 7% Ethanol, 5% glycerin, 5% 1,3-butylene glycol, 83% deionized water) | turbidity ([3]; 0.2% surfactin sodium salt, sodium edetate 0%, calcium 0.1 ppm, solvent 7% Ethanol, 5% glycerin, 5% 1,3-butylene glycol, 83% deionized water) | turbidity ([3]; 0.2% surfactin sodium salt, sodium edetate 0.0001%, calcium 0.1 ppm, solvent 7% Ethanol, 5% glycerin, 5% 1,3-butylene glycol, 83% deionized water) | turbidity ([3]; 0.2% surfactin sodium salt, sodium edetate 0.001%, calcium 0.1 ppm, solvent 7% Ethanol, 5% glycerin, 5% 1,3-butylene glycol, 83% deionized water) | turbidity ([3]; 0.2% surfactin sodium salt, sodium edetate 0.001%, calcium 1 ppm, solvent 7% Ethanol, 5% glycerin, 5% 1,3-butylene glycol, 83% deionized water) | turbidity ([3]; 0.2% surfactin sodium salt, sodium edetate 0.01%, calcium 0.1 ppm, solvent 7% Ethanol, 5% glycerin, 5% 1,3-butylene glycol, 83% deionized water) | turbidity ([3]; 0.2% surfactin sodium salt, sodium edetate 0.01%, calcium 1 ppm, solvent 7% Ethanol, 5% glycerin, 5% 1,3-butylene glycol, 83% deionized water) | turbidity ([3]; 0.2% surfactin sodium salt, sodium edetate 0.01%, calcium 10 ppm, solvent 7% Ethanol, 5% glycerin, 5% 1,3-butylene glycol, 83% deionized water) | turbidity ([3]; 0.2% surfactin sodium salt, sodium edetate 0.1%, calcium 0.1 ppm, solvent 7% Ethanol, 5% glycerin, 5% 1,3-butylene glycol, 83% deionized water) | turbidity ([3]; 0.2% surfactin sodium salt, sodium edetate 0.1%, calcium 1 ppm, solvent 7% Ethanol, 5% glycerin, 5% 1,3-butylene glycol, 83% deionized water) | turbidity ([3]; 0.2% surfactin sodium salt, sodium edetate 0.1%, calcium 10 ppm, solvent 7% Ethanol, 5% glycerin, 5% 1,3-butylene glycol, 83% deionized water) | turbidity ([3]; 0.2% surfactin sodium salt, sodium edetate 0.2%, calcium 0.1 ppm, solvent 7% Ethanol, 5% glycerin, 5% 1,3-butylene glycol, 83% deionized water) | turbidity ([3]; 0.2% surfactin sodium salt, sodium edetate 0.2%, calcium 1 ppm, solvent 7% Ethanol, 5% glycerin, 5% 1,3-butylene glycol, 83% deionized water) | turbidity ([3]; 0.2% surfactin sodium salt, sodium edetate 0.2%, calcium 10 ppm, solvent 7% Ethanol, 5% glycerin, 5% 1,3-butylene glycol, 83% deionized water) | turbidity ([3]; 0.2% surfactin sodium salt, sodium edetate 1%, calcium 0.1 ppm, solvent 7% Ethanol, 5% glycerin, 5% 1,3-butylene glycol, 83% deionized water) | turbidity ([3]; 0.2% surfactin sodium salt, sodium edetate 1%, calcium 1 ppm, solvent 7% Ethanol, 5% glycerin, 5% 1,3-butylene glycol, 83% deionized water) | turbidity ([3]; 0.2% surfactin sodium salt, sodium edetate 1%, calcium 10 ppm, solvent 7% Ethanol, 5% glycerin, 5% 1,3-butylene glycol, 83% deionized water) | turbidity ([3]; 0.2% surfactin sodium salt, sodium edetate 3%, calcium 0.1 ppm, solvent 7% Ethanol, 5% glycerin, 5% 1,3-butylene glycol, 83% deionized water) | turbidity ([3]; 0.2% surfactin sodium salt, sodium edetate 3%, calcium 1 ppm, solvent 7% Ethanol, 5% glycerin, 5% 1,3-butylene glycol, 83% deionized water) | turbidity ([3]; 0.2% surfactin sodium salt, sodium edetate 3%, calcium 10 ppm, solvent 7% Ethanol, 5% glycerin, 5% 1,3-butylene glycol, 83% deionized water) | turbidity ([3]; Surfactin 0.2% in Solvent 1 (deionized water), calcium 0 ppm) | turbidity ([3]; Surfactin 0.2% in Solvent 2 (7% Ethanol, 93% deionized water), calcium 0 ppm) | turbidity ([3]; Surfactin 0.2% in Solvent 3 (7% Ethanol, 5% glycerin, 5% 1,3-butylene glycol, 83% deionized water), calcium 0 ppm)
+: turbidity ([3]; 0.2% surfactin sodium salt in Solvent 1 (deionized water), magnesium 10 ppm) | turbidity ([3]; 0.2% surfactin sodium salt in Solvent 1 (deionized water), magnesium 20 ppm) | turbidity ([3]; 0.2% surfactin sodium salt, sodium citrate 0%, calcium 1 ppm, solvent 7% Ethanol, 5% glycerin, 5% 1,3-butylene glycol, 83% deionized water) | turbidity ([3]; 0.2% surfactin sodium salt, sodium citrate 0%, calcium 10 ppm, solvent 7% Ethanol, 5% glycerin, 5% 1,3-butylene glycol, 83% deionized water) | turbidity ([3]; 0.2% surfactin sodium salt, sodium citrate 0.0001%, calcium 10 ppm, solvent 7% Ethanol, 5% glycerin, 5% 1,3-butylene glycol, 83% deionized water) | turbidity ([3]; 0.2% surfactin sodium salt, sodium citrate 0.001%, calcium 10 ppm, solvent 7% Ethanol, 5% glycerin, 5% 1,3-butylene glycol, 83% deionized water) | turbidity ([3]; 0.2% surfactin sodium salt, sodium edetate 0%, calcium 1 ppm, solvent 7% Ethanol, 5% glycerin, 5% 1,3-butylene glycol, 83% deionized water) | turbidity ([3]; 0.2% surfactin sodium salt, sodium edetate 0%, calcium 10 ppm, solvent 7% Ethanol, 5% glycerin, 5% 1,3-butylene glycol, 83% deionized water) | turbidity ([3]; 0.2% surfactin sodium salt, sodium edetate 0.0001%, calcium 10 ppm, solvent 7% Ethanol, 5% glycerin, 5% 1,3-butylene glycol, 83% deionized water) | turbidity ([3]; 0.2% surfactin sodium salt, sodium edetate 0.001%, calcium 10 ppm, solvent 7% Ethanol, 5% glycerin, 5% 1,3-butylene glycol, 83% deionized water) | turbidity ([3]; Surfactin 0.2% in Solvent 1 (deionized water), calcium 10 ppm) | turbidity ([3]; Surfactin 0.2% in Solvent 1 (deionized water), calcium 20 ppm) | turbidity ([3]; Surfactin 0.2% in Solvent 2 (7% Ethanol, 93% deionized water), calcium 10 ppm) | turbidity ([3]; Surfactin 0.2% in Solvent 2 (7% Ethanol, 93% deionized water), calcium 20 ppm) | turbidity ([3]; Surfactin 0.2% in Solvent 3 (7% Ethanol, 5% glycerin, 5% 1,3-butylene glycol, 83% deionized water), calcium 10 ppm) | turbidity ([3]; Surfactin 0.2% in Solvent 3 (7% Ethanol, 5% glycerin, 5% 1,3-butylene glycol, 83% deionized water), calcium 20 ppm)
24.4%: Concentration of surfactant at 50% cytotoxicity [2]
